These results are taken from patent publication US20170112861A1, “DRUG DELIVERY ENHANCER COMPRISING SUBSTANCE FOR ACTIVATING LYSOPHOSPHOLIPID RECEPTORS” (Osaka University, priority 2014, published 2017).

Test [1] relates to Mouse colon cancer colon 26 cells. The test can be described thus: Combined administration of LPA and oxaliplatin, tumor growth in colon 26 cell tumor-bearing mice. To be noted: colon 26 tumors in BALB/c mice; LPA 3 mg/kg i.p.; oxaliplatin 1.5 mg/kg i.p. The format is in vivo. As for the experimental part:
(§1) LLC cells were subcutaneously inoculated into C57BL/6 NCrSlc mice aged 8 weeks in the same manner as in Example 1. An LPA administration solution was prepared in the same manner as in Example 1. The anticancer drug used was 5-FU (Kyowa Hakko Kirin Co., Ltd.). The 5-FU was prepared as a solution in physiological saline (Otsuka Pharmaceutical Co., Ltd.). On day 7 post-inoculation of LLC cells, mice with a tumor volume of 30 to 50 mm^3 were selected and subjected to the test. The mice were divided into four groups: control group, 5-FU group, LPA group and 5-FU/LPA group (n=3). LPA (3 mg/kg in 100 μL PBS) or 5-FU (100 mg/kg in 100 μL PBS) or PBS (100 μL) was administered intraperitoneally. To 5-FU/LPA group, both LPA and 5-FU were administered intraperitoneally. LPA and PBS were administered once daily for consecutive seven days. 5-FU was administered twice in total, once a week for two weeks (on days 7 and 14 post-inoculation). The tumor size was measured over time after start of administration. The tumor volume was calculated by the formula: volume=length×width×height×0.5. Mice at 2 weeks after start of administration were photographed with a digital camera under anesthesia with pentobarbital. The tumors were harvested and photographed with a digital camera.
Mouse colon cancer colon 26 cells were used. […]

Test [2] concerns Mouse pancreatic vascular endothelial cell line (MS-1). The experiment in a line: In vitro barrier function of endothelial cell-cell junctions (ECIS-Zθ, resistance between cells Rb). The format is cell-based. To be noted: MS-1 cells, 10 μM. As for the experimental part:
In vitro barrier function of the cell-cell junctions of vascular endothelial cells in the presence of LPA or VPC 31144 (S) was analyzed using a real-time cell ECIS-Zθ analyzer (Applied Biophysics).
LPA and VPC 31144 (S) were each dissolved in 50% ethanol as a 10 mM LPA stock solution and stored at −30° C. Before use, the LPA stock solution was thawed and homogenized with an ultrasonic cleaner (SND Co., Ltd.) for 1 minute. The solution was diluted in a serum-free culture medium supplemented with 0.1% BSA to a concentration of 10 μM.
Mouse pancreatic vascular endothelial cell line (MS-1) was used. The cells were suspended in DMEM (Sigma) containing 5% FBS. The cell suspension was seeded on a well plate with electrodes (8W10E+, 8 wells) specially designed for the analyzer at a density of 1×10^5 cells in 400 μL per well, and the cells were cultured overnight in an incubator to confluence. The medium was replaced by serum-free culture medium containing 0.1% BSA, and the cells were incubated for 4 hours. The medium was replaced by culture medium (serum-free culture medium containing 0.1% BSA) containing 10 μM LPA or VPC 31144 (S). The medium of the control cultures was replaced by serum-free culture medium containing 0.1% BSA. After replacement of the medium, resistance between cells (Rb) was measured in real time to evaluate the barrier function.

Test [3] deals with LLC cells. The experiment in a line: Combined administration of LPA and 5-FU, tumor growth in LLC cell tumor-bearing mice. It is filed as in vivo. As for the experimental part:
as §1

Test [4] relates to newly formed blood vessels in the choroid. The test can be described thus: Age-related macular degeneration model (laser-induced choroidal neovascularization), dextran leakage. Particulars: LPA 3 mg/kg i.p. on days 5 and 6 after laser irradiation, day 7, vs control. The format is in vivo, mice. The text has this: C57BL/6 NCrSlc mice aged 8 weeks (females, SLC, Inc.) were used. Tropicamide (Santen Pharmaceutical) was dropped in the eyes of the mice under anesthesia with pentobarbital (Kyoritsu Seiyaku Corporation) to dilate the pupil. The retina surrounding the optic disc of the ocular fundus was irradiated with a laser (Ultima 2000 SE) at four sites in each of the eyes of the mice under observation with a slit lamp microscope for the induction of choroidal neovascularization. The laser irradiation conditions were 150 mW, 0.05 seconds, and 75 μm. LPA (3 mg/kg in 100 μL PBS) was intraperitoneally administered to LPA group (n=3) on days 5 and 6 after laser irradiation, and PBS (100 μL) was intraperitoneally administered to control group (n=3) on days 5 and 6 after laser irradiation. On day 7 after laser irradiation (at 48 hours after first administration of LPA), FITC-labeled 70 kDa dextran (Sigma) was administered to the tail vein of the mice under anesthesia with pentobarbital. The dextran was prepared as a solution by dissolving and diluting the FITC-labeled 70 kDa dextran in PBS to a concentration of 5 mg/mL, and 50 μL of the solution was used for the administration. At 10 minutes after dextran administration, the eyeballs were collected. […]

Turning to lysophosphatidic acid [LPA], the “tumor growth (tumor volume)” value in test [1] is recorded as “some inhibitory effects on tumor growth as compared with the control, up to day 17 post-inoculation”; in test [3] (LLC tumors, LPA 3 mg/kg i.p. once daily for seven days, 5-FU 100 mg/kg i.p. on days 7 and 14) it was “some inhibitory effects on tumor growth as compared with the control”. Moreover, in test [2], the “duration of the increased barrier function” value is given as “the increased barrier function in endothelial cells was maintained over a long period of time”. Also, the “electric resistance (Rb), barrier function in endothelial cells” value in test [2] (serum-free medium with 0.1% BSA, vs control) was “increased the electric signals as compared with the control”. Also, the “appearance of tumors (blood flow)” value in test [3] (LPA alone 3 mg/kg i.p. once daily for seven days) is given as “the tumors appeared reddish, indicating an increase in the blood flow”. Moreover, in test [4], the “leakage of FITC-labeled 70 kDa dextran from newly formed blood vessels” value is on record as “the leakage of dextran was significantly inhibited”. In addition, in test [4], the “size of the newly formed blood vessels in the choroid” value is recorded as “no significant difference was observed”.
